Columns and labels:
[1] = test system: giant foxtail; assay: Test B pre/postemergence giant foxtail; assay type: in vivo, Setaria faberii
How it was run: (§1)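 Herbicidal effect was estimated by eye on a ten-point control scale after plants spent twelve to sixteen days in a greenhouse following soil or foliar treatment. Foliar sprays targeted plants at one to four leaves; all doses were formulated in a non-phytotoxic solvent with surfactant.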

[2] = test system: cocklebur; assay: Test B pre/postemergence cocklebur; assay type: in vivo, Xanthium strumarium
How it was run: as §1

[3] = test system: wild oat; assay: Test B pre/postemergence wild oat; assay type: in vivo, Avena fatua
How it was run: as §1

[4] = test system: velvetleaf; assay: Test B pre/postemergence velvetleaf; assay type: in vivo, Abutilon theophrasti
How it was run: as §1

[5] = test system: morningglory; assay: Test B pre/postemergence morningglory; assay type: in vivo, Ipomoea hederacea
How it was run: as §1

[6] = test system: pigweed; assay: Test B pre/postemergence pigweed; assay type: in vivo, Amaranthus retroflexus
How it was run: as §1

[7] = test system: purple nutsedge; assay: Test B pre/postemergence purple nutsedge; assay type: in vivo, Cyperus rotundus
How it was run: as §1

[8] = test system: bedstraw; assay: Test B pre/postemergence bedstraw; assay type: in vivo, Galium aparine
How it was run: as §1

[9] = test system: blackgrass; assay: Test B pre/postemergence blackgrass; assay type: in vivo, Alopecurus myosuroides
How it was run: as §1

[10] = test system: surinam grass; assay: Test B pre/postemergence surinam grass; assay type: in vivo, Brachiaria decumbens
How it was run: as §1

[11] = test system: sugar beet; assay: Test B pre/postemergence sugar beet; assay type: in vivo, Beta vulgaris
How it was run: as §1

[12] = test system: wheat; assay: Test B pre/postemergence wheat; assay type: in vivo, Triticum aestivum
How it was run: as §1

[13] = test system: soybean; assay: Test B pre/postemergence soybean; assay type: in vivo, Glycine max
How it was run: as §1

[14] = test system: crabgrass; assay: Test B pre/postemergence crabgrass; assay type: in vivo, Digitaria sanguinalis
How it was run: as §1

[15] = test system: rape; assay: Test B pre/postemergence rape; assay type: in vivo, Brassica napus
How it was run: as §1

[16] = test system: corn; assay: Test B pre/postemergence corn; assay type: in vivo, Zea mays
How it was run: as §1

[17] = Postemergence, Rate 62 g/ha, scale of 0 to 10, 0 is no effect, 10 is complete control
[18] = Postemergence, Rate 125 g/ha, scale 0 to 10, 0 is no effect, 10 is complete control
[19] = Postemergence, Rate 500 g/ha, scale 0 to 10, 0 is no effect, 10 is complete control
[20] = Preemergence, Rate 62 g/ha, scale 0 to 10 (0 no effect, 10 complete control)
[21] = Preemergence, Rate 125 g/ha, scale 0 to 10, 0 is no effect, 10 is complete control
[22] = Preemergence, Rate 500 g/ha, scale of 0 to 10 where 0 is no effect and 10 is complete control
[23] = Rate 250 g/ha, Postemergence, scale of 0 to 10 where 0 is no effect and 10 is complete control

## CC(C)N(C(=O)n1oc(=O)n(CCCC(F)(F)F)c1=O)c1ccc(Cl)cc1 [Compound 555]
[1]; [17]
  Giant foxtail plant response rating: 0
[1]; [18]
  Giant foxtail plant response rating: 0
[1]; [19]
  Plant response rating, Giant foxtail: 8
[1]; [20]
  Giant foxtail plant response rating: 9
[1]; [21]
  Giant foxtail plant response rating: 10
[1]; Preemergence, Rate 250 g/ha
  Giant foxtail plant response rating (0 to 10 scale): 10
[1]; [22]
  Giant foxtail plant response rating: 10
[1]; [23]
  Plant response rating, Giant foxtail: 8
[2]; [17]
  Cocklebur plant response rating: 0
[2]; [18]
  Cocklebur plant response rating: 0
[2]; [19]
  Plant response rating, Cocklebur: 3
[2]; [20]
  Cocklebur plant response rating: 0
[2]; [21]
  Cocklebur plant response rating: 0
[2]; Preemergence, Rate 250 g/ha
  Cocklebur plant response rating (0 to 10 scale): 2
[2]; [22]
  Cocklebur plant response rating: 9
[2]; [23]
  Plant response rating, Cocklebur: 0
[3]; [17]
  Wild oats plant response rating: 0
[3]; [19]
  Plant response rating, Wild oats: 2
[3]; [20]
  Wild oats plant response rating: 0
[3]; [21]
  Wild oats plant response rating: 0
[3]; Preemergence, Rate 250 g/ha
  Wild oats plant response rating (0 to 10 scale): 0
[3]; [22]
  Wild oats plant response rating: 7
[3]; [23]
  Plant response rating, Wild oats: 0
[4]; [17]
  Velvetleaf plant response rating: 0
[4]; [19]
  Plant response rating, Velvetleaf: 4
[4]; [20]
  Velvetleaf plant response rating: 0
[4]; [21]
  Velvetleaf plant response rating: 0
[4]; Preemergence, Rate 250 g/ha
  Velvetleaf plant response rating (0 to 10 scale): 0
[4]; [22]
  Velvetleaf plant response rating: 6
[4]; [23]
  Plant response rating, Velvetleaf: 2
[5]; [17]
  Morningglory plant response rating: 1
[5]; [18]
  Morningglory plant response rating: 2
[5]; [19]
  Plant response rating, Morningglory: 6
[5]; [20]
  Morningglory plant response rating: 0
[5]; [21]
  Morningglory plant response rating: 0
[5]; Preemergence, Rate 250 g/ha
  Morningglory plant response rating (0 to 10 scale): 0
[5]; [22]
  Morningglory plant response rating: 0
[5]; [23]
  Plant response rating, Morningglory: 5
[6]; [17]
  Redroot pigweed plant response rating: 0
[6]; [19]
  Plant response rating, Redroot pigweed: 2
[6]; [20]
  Redroot pigweed plant response rating: 0
[6]; [21]
  Redroot pigweed plant response rating: 0
[6]; Preemergence, Rate 250 g/ha
  Redroot pigweed plant response rating (0 to 10 scale): 3
[6]; [22]
  Redroot pigweed plant response rating: 7
[6]; [23]
  Plant response rating, Redroot pigweed: 2
[7]; [17]
  Nutsedge plant response rating: 0
[7]; [18]
  Nutsedge plant response rating: 0
[7]; [19]
  Plant response rating, Nutsedge: 0
[7]; [20]
  Nutsedge plant response rating: 0
[7]; [21]
  Nutsedge plant response rating: 0
[7]; Preemergence, Rate 250 g/ha
  Nutsedge plant response rating (0 to 10 scale): 0
[7]; [22]
  Nutsedge plant response rating: 0
[7]; [23]
  Plant response rating, Nutsedge: 0
[8]; [17]
  Bedstraw plant response rating: 2
[8]; [18]
  Bedstraw plant response rating: 9
[8]; [20]
  Bedstraw plant response rating: 0
[8]; [21]
  Bedstraw plant response rating: 0
[8]; Preemergence, Rate 250 g/ha
  Bedstraw plant response rating (0 to 10 scale): 0
[8]; [22]
  Bedstraw plant response rating: 0
[8]; [23]
  Plant response rating, Bedstraw: 9
[9]; [17]
  Blackgrass plant response rating: 0
[9]; [18]
  Blackgrass plant response rating: 2
[9]; [19]
  Plant response rating, Blackgrass: 5
[9]; [20]
  Blackgrass plant response rating: 0
[9]; [21]
  Blackgrass plant response rating: 0
[9]; Preemergence, Rate 250 g/ha
  Blackgrass plant response rating (0 to 10 scale): 0
[9]; [22]
  Blackgrass plant response rating: 8
[9]; [23]
  Plant response rating, Blackgrass: 2
[10]; [17]
  B. signalgrass plant response rating: 0
[10]; [18]
  B. signalgrass plant response rating: 0
[10]; [19]
  Plant response rating, B. signalgrass: 4
[10]; [20]
  B. signalgrass plant response rating: 6
[10]; [22]
  B. signalgrass plant response rating: 8
[10]; [23]
  Plant response rating, B. signalgrass: 0
[11]; [17]
  Sugarbeets plant response rating: 0
[11]; [19]
  Plant response rating, Sugarbeets: 0
[11]; [20]
  Sugarbeets plant response rating: 2
[11]; [21]
  Sugarbeets plant response rating: 5
[11]; [22]
  Sugarbeets plant response rating: 5
[11]; [23]
  Plant response rating, Sugarbeets: 0
[12]; [17]
  Wheat plant response rating: 6
[12]; [19]
  Plant response rating, Wheat: 2
[12]; [20]
  Wheat plant response rating: 0
[12]; [21]
  Wheat plant response rating: 0
[12]; Preemergence, Rate 250 g/ha
  Wheat plant response rating (0 to 10 scale): 2
[12]; [22]
  Wheat plant response rating: 3
[12]; [23]
  Plant response rating, Wheat: 0
[13]; [17]
  Soybean plant response rating: 1
[13]; [19]
  Plant response rating, Soybean: 2
[13]; [20]
  Soybean plant response rating: 0
[13]; [21]
  Soybean plant response rating: 0
[13]; Preemergence, Rate 250 g/ha
  Soybean plant response rating (0 to 10 scale): 0
[13]; [22]
  Soybean plant response rating: 2
[13]; [23]
  Plant response rating, Soybean: 2
[14]; [17]
  Crabgrass plant response rating: 0
[14]; [18]
  Crabgrass plant response rating: 0
[14]; [19]
  Plant response rating, Crabgrass: 10
[14]; [20]
  Crabgrass plant response rating: 9
[14]; [21]
  Crabgrass plant response rating: 9
[14]; Preemergence, Rate 250 g/ha
  Crabgrass plant response rating (0 to 10 scale): 10
[14]; [22]
  Crabgrass plant response rating: 10
[14]; [23]
  Plant response rating, Crabgrass: 9
[15]; [17]
  Rape plant response rating: 4
[15]; [18]
  Rape plant response rating: 5
[15]; [19]
  Plant response rating, Rape: 5
[15]; [20]
  Rape plant response rating: 0
[15]; [21]
  Rape plant response rating: 0
[15]; Preemergence, Rate 250 g/ha
  Rape plant response rating (0 to 10 scale): 0
[15]; [22]
  Rape plant response rating: 0
[16]; [17]
  Corn plant response rating: 0
[16]; [18]
  Corn plant response rating: 0
[16]; [19]
  Plant response rating, Corn: 0
[16]; [20]
  Corn plant response rating: 0
[16]; [21]
  Corn plant response rating: 0
[16]; Preemergence, Rate 250 g/ha
  Corn plant response rating (0 to 10 scale): 0
[16]; [22]
  Corn plant response rating: 2
[16]; [23]
  Plant response rating, Corn: 0

— US6737383B1, “Herbicidal oxadiazolidines” (priority 1999, dated 2004)
